Assay results from patent US20190374533A1, “COMPOUNDS AND METHODS FOR INHIBITING NHE-MEDIATED ANTIPORT IN THE TREATMENT OF DISORDERS ASSOCIATED WITH FLUID RETENTION OR SALT OVERLOAD AND GASTROINTESTINAL TRACT DISORDERS” (Ardelyx, Inc., priority 2008, published 2019).
Where a name gives a salt, the structure may show the parent alone.

Columns and labels:
[1] = target: T1, NHE3 (Homo sapiens, UniProt P48764); assay: Sustained inhibition of apical acid secretion in human organoid monolayer cell cultures (ileum); assay type: cell-based; settings: 1 μM apical, dosed day 6, apical media pH day 8
T1 construct: due to the increase in NHE3 expression after differentiation; endogenous in cells; host or cells: human ileum / duodenum organoid-derived monolayers
T1 sequence (P48764 26-834): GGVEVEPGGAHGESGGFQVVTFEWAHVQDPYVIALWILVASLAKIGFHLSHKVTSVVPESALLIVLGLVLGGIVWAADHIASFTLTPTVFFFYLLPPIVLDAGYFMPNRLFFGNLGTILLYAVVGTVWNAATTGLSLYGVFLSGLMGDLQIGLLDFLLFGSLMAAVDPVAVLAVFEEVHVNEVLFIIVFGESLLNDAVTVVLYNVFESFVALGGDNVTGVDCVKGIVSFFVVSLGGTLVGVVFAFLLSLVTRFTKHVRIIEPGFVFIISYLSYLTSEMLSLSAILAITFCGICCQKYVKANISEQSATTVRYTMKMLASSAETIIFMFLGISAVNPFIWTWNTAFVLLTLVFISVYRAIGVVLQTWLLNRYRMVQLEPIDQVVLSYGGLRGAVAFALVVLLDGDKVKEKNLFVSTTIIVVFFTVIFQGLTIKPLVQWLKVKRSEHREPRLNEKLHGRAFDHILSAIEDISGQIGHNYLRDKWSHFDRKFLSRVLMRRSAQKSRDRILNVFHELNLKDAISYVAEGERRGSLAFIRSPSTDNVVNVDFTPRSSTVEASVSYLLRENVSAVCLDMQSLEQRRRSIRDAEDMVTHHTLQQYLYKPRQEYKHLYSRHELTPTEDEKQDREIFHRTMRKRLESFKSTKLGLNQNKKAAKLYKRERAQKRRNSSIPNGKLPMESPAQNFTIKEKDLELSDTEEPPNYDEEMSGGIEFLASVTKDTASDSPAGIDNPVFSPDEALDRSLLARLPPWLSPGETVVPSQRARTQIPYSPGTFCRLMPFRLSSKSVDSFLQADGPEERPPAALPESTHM
Protocol: Basal media (BM) consisted of advanced DMEM/F12 containing 10 mM HEPES (Invitrogen, 15630-080), 1:100 Glutamax (Invitrogen, 35050-061), and 1:100 penicillin/streptomycin (Invitrogen, 15140-122). […] Growth factors used included 50 ng per mL mouse EGF (Peprotech, 315-09), 100 ng per mL mouse noggin (Peprotech, 250-38), 500 ng per mL human R-spondin 1 (R&D, 4645-RS), 100 ng per mL mouse Wnt-3a (R&D, 1324-WN), 20 μM Y-27632 (Tocris, 1254), 10 mM nicotinamide (Sigma, N0636), 500 nM A83-01 (Tocris, 2939), 10 μM SB202190 (Tocris, 1264). Transwells were 0.4 μm pore polyester membrane 24-well Transwell inserts (Corning). Cultures were incubated at 37° C. in 5% CO2.
Human ileum organoids were cultured in WENRNAS (Wnt, EGF, noggin. R-spondin1. Nicotinamide. A83-01, SB202190) and typically grown for 7-12 days before being used to plate monolayer cultures. On day 0, organoid cultures embedded in Matrigel were treated with TrypLE Express to break organoids into small pieces and/or single cells. […]
Each human ileum monolayer culture well was washed twice with fresh SBM on the apical side on day 6 before compound dosing. […] On day 8, apical media pH was measured by pH electrode, to determine the ability of example compounds to produce sustained inhibition of NHE3 activity in a human monolayer culture system by preventing proton secretion into the apical compartment.

[2] = target: T1, NHE3; assay: Sustained inhibition of apical acid secretion in human organoid monolayer cell cultures (duodenum); assay type: cell-based; settings: 1 μM apical
[3] = tested on: absorption of sodium from the intestinal lumen; assay: Inhibition of intestinal sodium absorption in rats; assay type: in vivo, rat; settings: Sprague Dawley rats, 0.1 mg/kg oral gavage, 13-hours post-dose
Protocol: Urinary sodium excretion and fecal form were measured to assess the ability of selected example compounds to inhibit the absorption of sodium from the intestinal lumen. Eight-week old, male, Sprague Dawley rats were purchased from Envigo (Livermore, Calif.), were housed 2 per cage and acclimated for at least 48 hours before study initiation. Animals were fed Harlan Teklad Global TD.160470 rodent chow (Maddison, Wis.), standard laboratory rodent chow Harlan Teklad Global 2018 with the addition of 0.4% inorganic phosphorous. […] At 13-hours post-dose, urine samples were collected and fecal form was assessed. In addition, the weight of food consumed over the 13-hour period was measured and recorded. Fecal forms were scored according to a common scale associated with increasing fecal water to the wettest observation in the cage's collection funnel (1, normal pellet; 2, pellet adhering to sides of collection funnel due to moisture; 3, loss of normal pellet shape: 4, complete loss of shape with a blotting pattern; 5, liquid fecal streams evident). Fecal form score (FFS) was calculated for each group as the median of each individual rat's FFS within the group and reported in Table 12. Fecal samples were dried using a lyophilizer for at least 3 days, following which dry weight was recorded and fecal fluid content was calculated based on the difference between the wet and dry stool weights. […]

| Structure (SMILES) | % inhibition (ileum) [1] | % inhibition (duodenum) [2] | Urinary Na (% of Vehicle, out/in) ([3]; normalized to dietary sodium intake) | FFS (1-5) ([3]; fecal form score, group median) |
| --- | --- | --- | --- | --- |
| CN1Cc2c(Cl)cc(Cl)cc2[C@H](c2cccc(S(=O)(=O)NCCOCCOCCNC(=O)NCCCCNC(=O)NCCOCCOCCNS(=O)(=O)c3cccc([C@@H]4CN(C)Cc5c(Cl)cc(Cl)cc54)c3)c2)C1 (single isomer, unassigned) [Example 202, (S or R)—N,N′-(10,17-dioxo-3,6,21,24-tetraoxa-9,11,16,18-tetraazahexacosane-1,26-diyl)bis(3-((S)-6,8-dichloro-2-methyl-1,2,3,4-tetrahydroisoquinolin-4-yl)benzenesulfonamide) bis-hydrochloride salt] | C (>70%) | C (>70%) |  |  |
| CN1Cc2c(Cl)cc(Cl)cc2[C@H](c2cccc(S(=O)(=O)NCCOCCOCCNC(=O)Nc3ccc(NC(=O)NCCOCCOCCNS(=O)(=O)c4cccc([C@@H]5CN(C)Cc6c(Cl)cc(Cl)cc65)c4)cc3)c2)C1 (single isomer, unassigned) [Example 203, (S or R)—N,N′-(2,2′-(2,2′-(2,2′-(1,4-phenylenebis(azanediyl))bis(oxomethylene)bis(azanediyl)bis(ethane-2,1-diyl))bis(oxy)bis(ethane-2,1-diyl))bis(oxy)bis(ethane-2,1-diyl))bis(3-((S or R)-6,8-dichloro-2-methyl-1,2,3,4-tetrahydroisoquinolin-4-yl)benzenesulfonamide) bis-hydrochloride salt] |  |  | C (<40%) | 3 |
